Test results published in publication PMC6986443, “T‐495, a novel low cooperative M1 receptor positive allosteric modulator, improves memory deficits associated with cholinergic dysfunction and is characterized by low gastrointestinal side effect risk” (Pharmacology Research & Perspectives, 2020).

What was measured:
[1] = tested on: SD rats; settings: rats, donepezil 0.1 mg/kg p.o. alone; combination study; rats with effect/total
Protocol: Seven‐ or 8‐week‐old SD rats were individually placed into observation cages. After an acclimation period of at least 1 hour, a test compound was administered to the rats. […] Cholinergic side effects, including diarrhea, lacrimation, salivation, miosis, and fasciculation, were assessed blindly, as described previously,27 and convulsion was scored using a modified Racine scale,37 as follows: stage 0, normal; stage 1, immobility; stage 2, forelimb and/or tail extension and rigid posture; stage 3, repetitive movements, head nodding, and gnawing; stage 4, rearing and falling; stage 5, continuous rearing and falling; stage 6, severe tonic‐clonic seizure with loss of postural control; and stage 7, death in the first 2 hours.

[2] = tested on: rats pretreated with scopolamine; design: method as in PMID 30089885; settings: 0.1 mg/kg; cited from earlier work
[3] = tested on: CaMKIIα‐tTA/A53T α‐syn dTg mice; assay: Y‐maze task; assay type: in vivo, mouse; settings: 1 mg/kg p.o. (P = .12)
Protocol: The Y‐maze was fabricated from gray plastic and consisted of three arms (40 cm long, 12 cm high, 3 cm wide at the bottom, and 10 cm wide at the top) with an angle of 120°. Visual cues were placed outside each arm, and the apparatus was illuminated at 10 lux. […] An arm entry was defined as all four paws of the mouse being in the arm, and the sequence of arm entries was monitored with a video camera and counted manually. An alternation was defined as successive entries into the three arms on overlapping triplet sets.36 The percentage of alternation was calculated as the ratio of actual to possible alternations (total number of arm entries minus 2) multiplied by 100.

[4] = tested on: rats; design: method as in PMID 30089885; settings: cited from earlier work
[5] = tested on: M1R; design: method as in PMID 30089885; settings: cited from earlier work
[6] = tested on: M1R; design: method as in PMID 30089885; settings: at concentrations required for procognitive efficacy; cited from earlier work

SMILES	Convulsion [1]	Fasciculation [1]	Lacrimation [1]	Loose, mucous stool, or diarrhea [1]	Myosis [1]	Salivation [1]	scopolamine‐induced NDI reduction, retention trial [2]	reduced percentage of alternations [3]	scopolamine‐induced cognitive impairment, combination with an AChEI [4]	difference between doses improving cognitive function and doses inducing diarrhea ([4]; rats) [fold]	α‐value (cooperativity) [5]	inhibition of the binding of scopolamine to M1R [6]
COc1cc2c(cc1OC)C(=O)C(CC1CCN(Cc3ccccc3)CC1)C2 (stereo not drawn) [donepezil, reference compound]	0/6	0/6	0/6	0/6	0/6	0/6	subeffective	tended to reverse	–	–	–	–
Cc1c(Cc2ccc(-n3cccn3)cc2)cc2c(c1F)CN([C@H]1COCC[C@@H]1O)C2=O [TAK‐071]	–	–	–	–	–	–	–	–	synergistically improved	33	199	did not inhibit
